Experimental data as given in ChEMBL document CHEMBL2424627, “Synthesis of novel bioactive pyrazolothiazoles” (Med Chem Res, 2013).

Key:
THP-1 [1] = assay: Antiinflammatory activity in LPS-stimulated human THP1 cells assessed as inhibition of TNFalpha release at 10 ug/ml after 24 hrs by ELISA relative to control; type: functional; settings: THP-1, 24 h
THP-1 [2] = assay: Antiinflammatory activity in LPS-stimulated human THP1 cells assessed as inhibition of IL-6 release at 10 ug/ml after 24 hrs by ELISA relative to control; type: functional; settings: THP-1, 24 h
[3] = Cytotoxicity against human THP1 cells assessed as cell viability at 10 ug/ml after 24 hrs by CCK-8 assay; type: cell-based; settings: THP-1 cells, read-out: Activity
THP-1 [4] = assay: Antiinflammatory activity in LPS-stimulated human THP1 cells assessed as inhibition of IL-6 release at 1 ug/ml after 24 hrs by ELISA relative to control; type: functional; settings: THP-1, 24 h
[5] = Cytotoxicity against human THP1 cells assessed as cell viability at 1 ug/ml after 24 hrs by CCK-8 assay; settings: THP-1 cells
THP-1 [6] = assay: Antiinflammatory activity in LPS-stimulated human THP1 cells assessed as inhibition of TNFalpha release at 1 ug/ml after 24 hrs by ELISA relative to control; type: functional; settings: THP-1, 24 h

| SMILES | inhibition at 10 µg/mL (THP-1 [1]) | inhibition at 10 µg/mL (THP-1 [2]) | viability at 24 h, 10 ug/ml [3] | inhibition at 1 µg/mL (THP-1 [4]) | viability at 24 h, 1 ug/ml [5] | inhibition at 1 µg/mL (THP-1 [6]) |
| --- | --- | --- | --- | --- | --- | --- |
| CCOC(=O)c1cn(-c2ccc(F)cc2)nc1-c1sc(N(C)c2ccccc2)nc1-c1ccccc1 | 4% | 61% | 33% | – | – | – |
| CCOC(=O)c1cn(-c2ccc(Cl)cc2)nc1-c1sc(N(CC)c2ccccc2)nc1-c1ccccc1 | 2% | 58% | 29% | – | – | – |
| CCOC(=O)c1cn(-c2ccccc2)nc1-c1sc(N(Cc2ccccc2)c2ccccc2)nc1-c1ccccc1 | 12% | 53% | 21% | – | – | – |
| CCOC(=O)c1cn(-c2ccc([N+](=O)[O-])cc2[N+](=O)[O-])nc1-c1sc(N(C)c2ccccc2)nc1-c1ccccc1 | 5% | 52% | 17% | – | – | – |
| CCOC(=O)c1cn(-c2ccccc2)nc1-c1sc(N(C)c2ccccc2)nc1-c1ccccc1 | 0% | 52% | 25% | – | – | – |
| CCOC(=O)c1cn(-c2ccc(F)cc2)nc1-c1sc(N(CC)c2ccccc2)nc1-c1ccccc1 | 0% | 48% | 22% | – | – | – |
| CCOC(=O)c1c[nH]nc1-c1sc(N(CC)c2ccccc2)nc1-c1ccccc1 | 14% | 56% | 39% | – | – | – |
| CCOC(=O)c1c[nH]nc1-c1sc(N(Cc2ccccc2)c2ccccc2)nc1-c1ccccc1 | 13% | 78% | 23% | – | – | – |
| CCOC(=O)c1c[nH]nc1-c1sc(N(C)c2ccccc2)nc1-c1ccccc1 | 5% | 71% | 26% | – | – | – |
| CCOC(=O)c1cn(-c2ccc(Cl)cc2)nc1-c1sc(N(Cc2ccccc2)c2ccccc2)nc1-c1ccccc1 | 7% | 20% | 2% | – | – | – |
| CCOC(=O)c1cn(-c2ccc([N+](=O)[O-])cc2[N+](=O)[O-])nc1-c1sc(N(CC)c2ccccc2)nc1-c1ccccc1 | 0% | 73% | 35% | – | – | – |
| CCOC(=O)c1cn(-c2ccc(Cl)cc2)nc1-c1sc(N(C)c2ccccc2)nc1-c1ccccc1 | 11% | 51% | 23% | – | – | – |
| CCOC(=O)c1cn(-c2ccc(F)cc2)nc1-c1sc(N(Cc2ccccc2)c2ccccc2)nc1-c1ccccc1 | 16% | 46% | 10% | – | – | – |
| C[C@@H]1C[C@H]2[C@@H]3CCC4=CC(=O)C=C[C@]4(C)[C@@]3(F)[C@@H](O)C[C@]2(C)[C@@]1(O)C(=O)CO [DEXAMETHASONE] | – | – | – | 85% | 0% | 72% |
| CCOC(=O)c1cn(-c2ccccc2)nc1-c1sc(N(CC)c2ccccc2)nc1-c1ccccc1 | 0% | 47% | 23% | – | – | – |
